Results from PubChem BioAssay (NCI).
“And” between values parts separate entries of the source, which are not always exact repeats. Identical values can stand only once.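 Exposure lasted 48 hours, with cells grown in 96-well plates and compounds tested at five concentrations. GI50: concentration for 50% inhibition of growth. TGI: total growth inhibition.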

Legend:
Assay in all cases: NCI-60 cell line screen, 48 h
SK-MEL-28 melanoma = test system: SK-MEL-28 melanoma
OVCAR-5 ovarian = test system: OVCAR-5 ovarian
HL-60(TB) leukemia = test system: HL-60(TB) leukemia
HCT-116 colon = test system: HCT-116 colon
HT29 colon = test system: HT29 colon
SNB-19 CNS = test system: SNB-19 CNS
RPMI-8226 leukemia = test system: RPMI-8226 leukemia
OVCAR-3 ovarian = test system: OVCAR-3 ovarian
LOX IMVI melanoma = test system: LOX IMVI melanoma
CAKI-1 renal = test system: CAKI-1 renal

Row | Compound | TGI (SK-MEL-28 melanoma) | TGI (OVCAR-5 ovarian) [µM] | TGI (HL-60(TB) leukemia) [µM] | TGI (HCT-116 colon) | TGI (HT29 colon) [µM] | TGI (SNB-19 CNS) [µM] | TGI (RPMI-8226 leukemia) | TGI (OVCAR-3 ovarian) | TGI (LOX IMVI melanoma) | TGI (CAKI-1 renal) | GI50 (HL-60(TB) leukemia) | GI50 (HT29 colon) | GI50 (CAKI-1 renal) | GI50 (SNB-19 CNS) | GI50 (SK-MEL-28 melanoma) [µM] | GI50 (OVCAR-5 ovarian) [µM] | GI50 (HCT-116 colon) [µM] | GI50 (LOX IMVI melanoma) [µM] | GI50 (RPMI-8226 leukemia) [µM] | GI50 (OVCAR-3 ovarian) [µM]
1 | CCn1c(CCl)nc2c1C(=O)c1ccccc1C2=O | 3.19 µM | 3.25 | 6.85 | 4.32 µM | 3.47 | 3.59 | > 100 µM | 3.05 µM | – | – | – | – | – | – | – | – | – | – | – | –
2 | C/C(=N\NC(=S)N1CCCCCC1)c1cccc2cccnc12 | > 66.4 µM | > 100 | > 45.7 | > 67.1 µM | 19.1 | > 44.2 | 15.3 µM | 0.567 µM | 27.1 µM | 2.42 µM | – | – | – | – | – | – | – | – | – | –
3 | CCc1nc(N)nc(N)c1-c1ccc(Cl)c(N=[N+]=[N-])c1 | > 87.7 µM and 60.5 µM | > 100 | – | > 80.6 µM and 65.1 µM | > 85.4 | > 100 | 39.2 µM and 52.1 µM | 64.6 µM and 80 µM | > 100 µM and 67.7 µM | 99.5 µM and > 96.4 µM | 0.4 µM and 2.14 µM | 1.32 µM and 3.06 µM | 19.3 µM and 7.29 µM | 5.09 µM and 19.5 µM | – | – | – | – | – | –
4 | COc1cnc2c(c1)C(=O)c1c-2n(CCCN2CCC(O)CC2)c(=O)c2cc(Cl)ccc12 | 35.7 µM | 3.43 | 4.32 | 2.18 µM | 2.43 | 3.46 | 5.19 µM | 3.03 µM | 1.46 µM | 15.1 µM | 0.929 µM | 0.59 µM | 0.0729 µM | 0.243 µM | 16.7 | 1.63 | 0.0987 | 0.0758 | 0.947 | 1.4
5 | COc1ccc(NCC(=O)Nn2c(-c3ccccc3)nc3ccccc3c2=O)cc1 | > 100 µM | > 100 | > 100 | > 10 µM | > 100 | > 100 | > 100 µM | > 100 µM | 44 µM | – | – | – | – | – | – | – | – | – | – | –
6 | C#CCN(Cc1ccc2nc(-c3ccccc3)c(N)nc2c1)c1cc(OC)c(OC)c(OC)c1 | > 100 µM | > 100 | 41.4 | 57.7 µM | 59 | > 100 | 32.3 µM | 59 µM | 59.3 µM | – | – | – | – | – | – | – | – | – | – | –
7 | CC(=O)NC1=NC(=O)/C(=C/c2ccc(/C=C3/C(=O)N=C(NC(C)=O)N3C)cc2)N1C | > 100 µM | > 100 | > 100 | > 100 µM | > 100 | > 100 | – | > 100 µM | > 100 µM | > 100 µM | – | – | – | – | – | – | – | – | – | –
8 | CC1SC2(CCCCC2)N(NC(=O)c2[nH]c3ccc(Br)cc3c2-c2ccccc2)C1=O (stereo not drawn) | > 100 µM | > 100 | – | > 100 µM | > 100 | > 100 | 30.2 µM | 20.9 µM | > 100 µM | > 100 µM | – | 8.1 µM | 62.5 µM | 40.8 µM | 56.2 | 58.7 | 10.2 | 92.7 | 3.83 | 3.24
9 | COc1cccc(SSc2cccc(OC)c2C(=O)O)c1C(=O)O | > 100 µM | > 100 | > 100 | > 100 µM | > 100 | – | > 100 µM | > 100 µM | > 100 µM | > 100 µM | – | – | – | – | – | – | – | – | – | –
10 | Cc1nc2ccccc2nc1N=Nc1ccccc1 | > 100 µM | > 100 | 56.6 | > 100 µM | 15.1 | > 100 | 42.8 µM | 82.1 µM | > 100 µM | – | 20.6 µM | 0.193 µM | – | 50.3 µM | 26 | 75.7 | 31.1 | 23.3 | 12.2 | 12.9
11 | Cc1cc(Cl)ccc1C(=O)c1ccc2ccccc2c1C(=O)O | > 100 µM | > 100 | > 100 | > 100 µM | > 100 | > 100 | > 100 µM | > 100 µM | – | > 100 µM | – | – | – | – | – | – | – | – | – | –
12 | N#CC1=C(O)NC(O)=C(C#N)C1c1ccc(C2C(C#N)=C(O)NC(O)=C2C#N)cc1 | > 100 µM | – | 75.3 | > 100 µM | > 100 | > 100 | > 100 µM | > 100 µM | > 100 µM | > 100 µM | – | – | – | – | – | – | – | – | – | –
13 | CC(=O)/C=C/c1ccc(OCc2ccc(Cl)cc2)cc1 | > 1000 µM | > 1000 | > 1000 | > 1000 µM | > 1000 | > 1000 | > 1000 µM | > 1000 µM | > 1000 µM | – | 405 µM | > 1000 µM | – | > 1000 µM | 400 | > 1000 | > 1000 | 343 | 237 | > 1000
14 | O=C1CN(c2cccc(Cl)c2)C(=O)CN1NCNN1CC(=O)N(c2cccc(Cl)c2)CC1=O | > 100 µM | > 100 | > 100 | > 100 µM | > 100 | > 100 | > 100 µM | > 100 µM | – | > 100 µM | – | – | – | – | – | – | – | – | – | –
15 | NC(=S)N1N=C2c3ccccc3CC[C@H]2[C@@H]1c1ccc(Cl)cc1 | > 100 µM | > 100 | 61.6 | 37.3 µM | > 100 | > 100 | > 100 µM | > 100 µM | > 100 µM | – | – | – | – | – | – | – | – | – | – | –
16 | Cl.Fc1c[c-]c(-c2ccccn2)c(F)c1.[Pt].c1ccc([PH+](C[PH+](c2ccccc2)c2ccccc2)c2ccccc2)cc1 | 0.706 µM | 1.18 | 0.67 | – | – | 1.32 | 0.544 µM | 0.442 µM | – | 0.839 µM | 0.233 µM | – | 0.266 µM | 0.343 µM | 0.231 | 0.324 | – | – | 0.161 | 0.184
17 | CC(=O)Nc1n[n+]([O-])c2cc(C)ccc2[n+]1[O-] | 44.2 µM | 33.5 | – | 13.5 µM | 13.4 | 23.3 | > 100 µM | 7.77 µM | 11.5 µM | 12 µM | – | – | – | – | – | – | – | – | – | –
18 | C=Cn1c([N+](=O)[O-])cnc1/C=C/c1ccc(C(=O)OCCN2CCOCC2)cc1 | > 100 µM | > 100 | – | > 100 µM | > 100 | > 100 | 78.4 µM | > 100 µM | > 100 µM | > 100 µM | – | – | – | – | – | – | – | – | – | –
19 | COc1ccc(-c2csc(NC(=O)CN3CCN(c4cc5c(cc4F)c(=O)c(C(=O)O)cn5C4CC4)CC3)n2)cc1 | > 100 µM | – | – | > 100 µM | > 100 | > 100 | > 100 µM | > 100 µM | – | > 100 µM | – | 3.49 µM | 3.57 µM | 4.1 µM | 3.72 | – | 3.1 | – | 2.69 | 3.86
